pIC50: −log10 of the molar value.
Assays:
Format in all cases: biochemical
ABHD6 = target: T1, ABHD6 (Mus musculus, UniProt Q8R2Y0); test: In vitro competitive activity-based protein profiling, mouse brain proteome, ABHD6; conditions: mouse
T1 construct: Brain; from tissue; host or cells: mouse brain proteome
T1 sequence (Q8R2Y0 1-336): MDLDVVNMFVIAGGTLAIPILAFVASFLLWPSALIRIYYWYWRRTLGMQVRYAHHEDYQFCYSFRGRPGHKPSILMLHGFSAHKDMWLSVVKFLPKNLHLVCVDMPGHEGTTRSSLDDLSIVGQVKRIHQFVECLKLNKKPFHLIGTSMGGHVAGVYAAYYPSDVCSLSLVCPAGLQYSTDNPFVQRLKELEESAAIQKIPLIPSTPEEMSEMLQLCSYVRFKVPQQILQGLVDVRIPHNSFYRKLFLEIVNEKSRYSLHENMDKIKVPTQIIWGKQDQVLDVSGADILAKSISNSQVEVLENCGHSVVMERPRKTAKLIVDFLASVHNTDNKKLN
Method: [Worded in the source for another target; this target is reported under the same test.] (§1) Proteomes (human prefrontal cortex or cell membrane fractions) (50 μL, 1.0 mg/mL total protein concentration) were preincubated with varying concentrations of inhibitors at 37° C. After 30 min, FP—Rh or HT-01 (1.0 μL, 50 μM in DMSO) was added and the mixture was incubated for another 30 min at room temperature. Reactions were quenched with SDS loading buffer (15 μL-4×) and run on SDS-PAGE.

MGLL = target: T2, MGLL (Mus musculus, UniProt O35678); test: In vitro competitive activity-based protein profiling, mouse brain proteome
T2 construct: Brain; from tissue; host or cells: mouse brain proteome
T2 sequence (O35678 1-303): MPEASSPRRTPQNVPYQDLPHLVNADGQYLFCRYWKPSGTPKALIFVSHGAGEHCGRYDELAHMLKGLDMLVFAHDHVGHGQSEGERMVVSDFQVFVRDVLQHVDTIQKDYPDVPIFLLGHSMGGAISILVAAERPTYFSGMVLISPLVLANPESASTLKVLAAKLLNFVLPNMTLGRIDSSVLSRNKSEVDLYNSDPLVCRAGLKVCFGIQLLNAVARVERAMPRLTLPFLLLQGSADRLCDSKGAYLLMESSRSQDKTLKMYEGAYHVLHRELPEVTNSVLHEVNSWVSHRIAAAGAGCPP
Method: [Worded in the source for another species; this species is reported under the same test.] as §1

MAGL = target: T3, MAGL (Homo sapiens, UniProt Q99685); test: In vitro competitive activity-based protein profiling (gel-based, FP-Rh or HT-01 probe); conditions: for pIC50: read-out: IC50 MGLL PC3 (Human); for % Inh MGLL PFC (Human, μM): PFC (prefrontal cortex) proteome
T3 construct: Proteomes (human prefrontal cortex or cell membrane fractions); from tissue
T3 sequence (Q99685 1-303): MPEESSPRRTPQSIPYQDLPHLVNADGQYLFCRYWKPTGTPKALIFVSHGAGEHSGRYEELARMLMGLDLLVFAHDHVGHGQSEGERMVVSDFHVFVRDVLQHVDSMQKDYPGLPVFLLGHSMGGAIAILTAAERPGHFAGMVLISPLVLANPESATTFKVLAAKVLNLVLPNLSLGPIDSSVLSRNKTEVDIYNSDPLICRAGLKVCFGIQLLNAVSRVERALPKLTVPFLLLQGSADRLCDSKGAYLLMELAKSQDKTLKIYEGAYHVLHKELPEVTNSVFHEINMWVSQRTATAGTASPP
Method: Compounds are tested to assess their MAGL and serine hydrolase activity using the following in vitro and in vivo assays.
as §1

| Structure (SMILES) | pIC50 (ABHD6) | pIC50 (MGLL) | pIC50 (MAGL; PC3 proteome) | further results |
| --- | --- | --- | --- | --- |
| O=C(OC(C(F)(F)F)C(F)(F)F)N1CCC2(CC1)CN(Cc1ccc(Cl)c(Cl)c1)C2 [Example 67, 1,1,1,3,3,3-Hexafluoropropan-2-yl 2-(3,4-dichlorobenzyl)-2,7-diazaspiro[3.5]nonane-7-carboxylate] | > 7.00 | > 7.00 |  |  |
| CC(=O)N1CCCC12CCN(c1cc(C(F)(F)F)ccc1CN1CCN(C(=O)OC(C(F)(F)F)C(F)(F)F)CC1)CC2 [Example 208, 1,1,1,3,3,3-Hexafluoropropan-2-yl 4-(2-(1-acetyl-1,8-diazaspiro[4.5]decan-8-yl)-4-(trifluoromethyl)benzyl)piperazine-1-carboxylate] | < 6.00 | 6.00 to 7.00 |  |  |
| CCN1CCC2(CCN(c3cc(Cl)ccc3CN3CCN(C(=O)OC(C(F)(F)F)C(F)(F)F)CC3)CC2)C1 [Example 170, 1,1,1,3,3,3-Hexafluoropropan-2-yl 4-(4-chloro-2-(2-ethyl-2,8-diazaspiro[4.5]decan-8-yl)benzyl)piperazine-1-carboxylate] | < 6.00 | 6.00 to 7.00 |  |  |
| O=C(OC(C(F)(F)F)C(F)(F)F)N1CCC2(CC1)CN(Cc1c(Cl)cccc1N1CCCC1)C2 [Example 42, 1,1,1,3,3,3-Hexafluoropropan-2-yl 2-(2-chloro-6-(pyrrolidin-1-yl)benzyl)-2,7-diazaspiro[3.5]nonane-7-carboxylate] | 6.00 to 7.00 | > 7.00 |  |  |
| O=C(OC(C(F)(F)F)C(F)(F)F)N1CCC2(CC1)CN(Cc1c(Cl)cccc1N1CCC3(CCOCC3)C1)C2 [Example 48, 1,1,1,3,3,3-Hexafluoropropan-2-yl 2-(2-chloro-6-(8-oxa-2-azaspiro[4.5]decan-2-yl)benzyl)-2,7-diazaspiro[3.5]nonane-7-carboxylate] | > 7.00 | > 7.00 |  |  |
| CS(=O)(=O)N1CCCC12CCN(c1cc(Cl)ccc1CN1CCN(C(=O)OC(C(F)(F)F)C(F)(F)F)CC1)CC2 [Example 205, 1,1,1,3,3,3-Hexafluoropropan-2-yl 4-(4-chloro-2-(1-(methylsulfonyl)-1,8-diazaspiro[4.5]decan-8-yl)benzyl)piperazine-1-carboxylate] | < 6.00 | 6.00 to 7.00 |  |  |
| CN(Cc1ccc(C(F)(F)F)cc1N1CCC(N2CCC[C@H]2C(=O)O)CC1)C1(C)CCN(C(=O)OC(C(F)(F)F)C(F)(F)F)CC1 [Example 163, (1-(2-(((1-(((1,1,1,3,3,3-Hexafluoropropan-2-yl)oxy)carbonyl)-4-methylpiperidin-4-yl)(methyl)amino)methyl)-5-(trifluoromethyl)phenyl)piperidin-4-yl)-L-proline] |  |  |  | % Inh MGLL Brain (Mouse, μM) (MGLL): ### (### is ≥ 75%); % Inh MGLL PC3 (Human, μM) (MAGL; PC3 proteome): ### (### is ≥ 75%) |
| CC(=O)N1CC2CN(c3cc(C(F)(F)F)ccc3CN3CCN(C(=O)OC(C(F)(F)F)C(F)(F)F)CC3)CC2C1 (stereo not shown) [Example 200, 1,1,1,3,3,3-Hexafluoropropan-2-yl 4-(2-(5-acetylhexahydropyrrolo[3,4-c]pyrrol-2(1H)-yl)-4-(trifluoromethyl)benzyl)piperazine-1-carboxylate] | < 6.00 | > 7.00 |  |  |
| CS(=O)(=O)N1CC2CN(c3cc(Cl)ccc3CN3CCN(C(=O)OC(C(F)(F)F)C(F)(F)F)CC3)CC2C1 (stereo not shown) [Example 203, 1,1,1,3,3,3-Hexafluoropropan-2-yl 4-(4-chloro-2-(5-(methylsulfonyl)hexahydropyrrolo[3,4-c]pyrrol-2(1H)-yl)benzyl)piperazine-1-carboxylate] | < 6.00 | 6.00 to 7.00 |  |  |
| CC(=O)N1CC2CN(c3cc(Cl)ccc3CN3CCN(C(=O)OC(C(F)(F)F)C(F)(F)F)CC3)CC2C1 (stereo not shown) [Example 202, 1,1,1,3,3,3-Hexafluoropropan-2-yl 4-(2-(5-acetylhexahydro-pyrrolo[3,4-c]pyrrol-2(1H)-yl)-4-chlorobenzyl) piperazine-1-carboxylate] | < 6.00 | 6.00 to 7.00 |  |  |
| CC(C)(C#Cc1ccccc1CN1CCCC12CCN(C(=O)OC(C(F)(F)F)C(F)(F)F)CC2)C(=O)O [Example 145, 4-{2-[(8-{[(1,1,1,3,3,3-Hexafluoropropan-2-yl)oxy]carbonyl}-1,8-diazaspiro[4.5]decan-1-yl)methyl]phenyl]-2,2-dimethylbut-3-ynoic acid] |  |  | 6.00 to 7.00 | % Inh MGLL PFC (Human, μM) (MAGL): ### (### is ≥ 75%) |
| O=C(O)C1CCCCN1c1cc(CN2CC3(CCN(C(=O)OC(C(F)(F)F)C(F)(F)F)CC3)C2)cc(C(F)(F)F)c1 (stereo not shown) [Example 120, 1-(3-((7-(((1,1,1,3,3,3-Hexafluoropropan-2-yl)oxy)carbonyl)-2,7-diazaspiro[3.5]nonan-2-yl)methyl)-5-(trifluoromethyl)phenyl)piperidine-2-carboxylic acid] |  |  | > 7.00 |  |
| CC1(OCc2cc(CN3CCC(C(=O)O)CC3)cc(C(F)(F)F)c2)CCN(C(=O)OC(C(F)(F)F)C(F)(F)F)CC1 [Example 25, 1-(3-(((1-(((1,1,1,3,3,3-Hexafluoropropan-2-yl)oxy)carbonyl)-4-methylpiperidin-4-yl)oxy)methyl)-5-(trifluoromethyl)benzyl)piperidine-4-carboxylic acid] |  |  | > 7.00 | % Inh MGLL PFC (Human, μM) (MAGL): ### (### is ≥ 75%) |
| O=C(O)C1COCCN1c1cc(CN2CC3(CCN(C(=O)OC(C(F)(F)F)C(F)(F)F)CC3)C2)cc(C(F)(F)F)c1 (stereo not shown) [Example 103, 4-(3-((7-(((1,1,1,3,3,3-Hexafluoropropan-2-yl)oxy)carbonyl)-2,7-diazaspiro[3.5]nonan-2-yl)methyl)-5-(trifluoromethyl)phenyl)morpholine-3-carboxylic acid] |  |  | > 7.00 |  |
| O=C(O)C1CCN(c2cc(CN3CCC4(CC3)CCN(C(=O)OC(C(F)(F)F)C(F)(F)F)C4)cc(S(F)(F)(F)(F)F)c2)CC1 [Example 226, 1-(3-((2-(((1,1,1,3,3,3-Hexafluoropropan-2-yl)oxy)carbonyl)-2,8-diazaspiro[4.5]decan-8-yl)methyl)-5-(pentafluoro-l6-sulfaneyl)phenyl) piperidine-4-carboxylic acid] |  |  | > 7.00 |  |
| O=C(O)C1CCN(c2cc(C(F)(F)F)ccc2CN2CC3(CCN(C(=O)OC(C(F)(F)F)C(F)(F)F)CC3)C2)C1 (stereo not shown) [Example 101, 1-(2-((7-(((1,1,1,3,3,3-Hexafluoropropan-2-yl)oxy)carbonyl)-2,7-diazaspiro[3.5]nonan-2-yl)methyl)-5-(trifluoromethyl)phenyl)pyrrolidine-3-carboxylic acid] |  |  | > 7.00 |  |
| CC(C)(C#Cc1cc(CN2CCCC23CCN(C(=O)OC(C(F)(F)F)C(F)(F)F)CC3)cc(C(F)(F)F)c1)C(=O)O [Example 140, 4-{3-[(8-{[(1,1,1,3,3,3-Hexafluoropropan-2-yl)oxy]carbonyl}-1,8-dazaspiro[4.5]decan-1-yl)methyl]-5-(trifluoromethyl)phenyl]-2,2-dimethylbut-3-ynoic acid] |  |  | > 7.00 |  |
| CN(Cc1ccc(C(F)(F)F)cc1OCC(=O)O)C1(C)CCN(C(=O)OC(C(F)(F)F)C(F)(F)F)CC1 [Example 136, 2-(2-(((1-(((1,1,1,3,3,3-Hexafluoropropan-2-yl)oxy)carbonyl)-4-methylpiperidin-4-yl)(methyl)amino)methyl)-5-(trifluoromethyl)phenoxy)acetic acid] |  |  | > 7.00 | % Inh MGLL PFC (Human, μM) (MAGL): ### (### is ≥ 75%) |
| O=C(OC(C(F)(F)F)C(F)(F)F)N1CCC2(CC1)CCN(C(=O)c1cc(Cl)cc(C(F)(F)F)c1)C2 [Example 110, 1,1,1,3,3,3-Hexafluoropropan-2-yl 2-(3-chloro-5-(trifluoromethyl)benzoyl)-2,8-diazaspiro[4.5]decane-8-carboxylate] |  |  | > 7.00 |  |
| O=C(O)c1ccc(CN2CC3(CCN(C(=O)OC(C(F)(F)F)C(F)(F)F)CC3)C2)cc1C(F)(F)F [Example 131, 4-((7-(((1,1,1,3,3,3-Hexafluoropropan-2-yl)oxy)carbonyl)-2,7-diazaspiro[3.5]nonan-2-yl)methyl)-2-(trifluoromethyl) benzoic acid] |  |  | 6.00 to 7.00 |  |
| CN(Cc1ccc(C(F)(F)F)cc1-c1nnn[nH]1)C1(C)CCN(C(=O)OC(C(F)(F)F)C(F)(F)F)CC1 [Example 24, 1,1,1,3,3,3-Hexafluoropropan-2-yl 4-((2-(1H-tetrazol-5-yl)-4-(trifluoromethyl)benzyl)(methyl)amino)-4-methylpiperidine-1-carboxylate] |  |  | > 7.00 |  |

From patent US20210214375A1 (LUNDBECK LA JOLLA RESEARCH CENTER, INC., priority 2017, published 2021)
